Data as given in patent publication US20250032438A1, “METHOD FOR ALLEVIATING OXIDATIVE STRESS” (Nissui Corporation, priority 2021, published 2025).

Columns and labels:
[1] = system: Human alveolar epithelial cells; assay: Example 2: effect of protection from oxidative stress (CCK8 survival after 800 μM hydrogen peroxide); type: cell-based; settings: 24 h pre-incubation, 800 μM hydrogen peroxide 8 h, FIG. 2
Method: Human alveolar epithelial cells were seeded on a 96-well microplate at 8×10^3/well, and cultured overnight at 37° C. and 5% CO2. […] The medium was removed by suction, and then exchanged for a medium containing 800 μM hydrogen peroxide, followed by incubation at 37° C. and 5% CO2 for 8 hours. CCK8 (DOJINDO LABORATORIES) was added to each well, and the absorbance of the sample at 450 nm after 1.5 hours was measured. The relative survival rate of each treatment section was calculated, where the absorbance value of a well without hydrogen peroxide treatment was 1. • Test section 1: control • Test section 2: hydrogen peroxide • Test section 3: 10 μM arachidonic acid (C20:4n-6) ethyl ester+hydrogen peroxide • Test section 4: 30 μM arachidonic acid (C20:4n-6) ethyl ester+hydrogen peroxide • Test section 5: 10 μM C32:4n-6 ethyl ester+hydrogen peroxide • Test section 6: 30 μM C32:4n-6 ethyl ester+hydrogen peroxide

[2] = system: Human retinal pigment epithelial cells; assay: Example 3: effect of protection from oxidative stress (CCK8 survival after 300 μM hydrogen peroxide); type: cell-based; settings: compared to the non-treatment condition or arachidonic acid (C20:4n-6) ethyl ester at the same treatment concentration (10 or 30 μM); 24 h pre-incubation, 300 μM hydrogen peroxide 24 h; FIG. 3
Method: The medium was removed by suction, and then exchanged for a medium containing 300 μM hydrogen peroxide, followed by incubation at 37° C. and 5% CO2 for 24 hours. CCK8 (DOJINDO LABORATORIES) was added to each well, and the absorbance of the sample at 450 nm after 1.5 hours was measured.

[3] = system: Human retinal pigment epithelial cells; assay: Example 4: effect of protection from oxidative stress (CCK8 survival after hydrogen peroxide); type: cell-based; settings: compared to the non-treatment condition or eicosapentaenoic acid (C20:5n-3) ethyl ester at the same treatment concentration (10 or 30 μM); 24 h pre-incubation, hydrogen peroxide 24 h; FIG. 4
Method: The medium was removed by suction, and then exchanged for a medium containing […] hydrogen peroxide, followed by incubation at 37° C. and 5% CO2 for 24 hours. CCK8 (DOJINDO LABORATORIES) was added to each well, and the absorbance of the sample at 450 nm after 1.5 hours was measured. The relative survival rate of each treatment section was calculated, where the absorbance value of a well without hydrogen peroxide treatment was 1. • Test section 1: control • Test section 2: hydrogen peroxide • Test section 3: 10 μM eicosapentaenoic acid […] ethyl ester+hydrogen peroxide • Test section 4: 30 μM eicosapentaenoic acid […] ethyl ester+hydrogen peroxide • Test section 5: 10 μM C34:5n-3 ethyl ester+hydrogen peroxide • Test section 6: 30 μM C34:5n-3 ethyl ester+hydrogen peroxide

[4] = system: Human alveolar epithelial cells; settings: 800 μM hydrogen peroxide for 1 hour, compared to non-treatment section; FIG. 1
[5] = compared to the section treated with hydrogen peroxide alone, 10 or 30 μM

`CCCCC/C=C\C/C=C\C/C=C\C/C=C\CCCCCCCCCCCCCCCC(=O)OCC` [C32:4n-6 ethyl ester] was tested, and the “relative cell survival rate after hydrogen peroxide treatment” value (from here on “relative cell survival rate”) ([1]; compared to arachidonic acid (C20:4n-6) ethyl ester at the same treatment concentration (10 or 30 μM)) was “significantly higher”, the “relative cell survival rate” value [1, 5] was “significantly higher” and the “relative cell survival rate” value [2] was “significantly higher”.

`CCC=CCC=CCC=CCC=CCC=CCCCCCCCCCCCCCCCCCC(=O)OCC` [C34:5n-3 ethyl ester] was tested, and the “relative cell survival rate” value [3] was “significantly higher”.

In the case of `CCCCC/C=C\C/C=C\C/C=C\C/C=C\CCCC(=O)OCC` [arachidonic acid (C20:4n-6) ethyl ester, reference compound], the “relative cell survival rate” value [1, 5] is reported as “significantly lower”.

`OO` [hydrogen peroxide] was tested, and the “relative production amount of ROS (reactive oxygen species)” value [4] was “significantly larger”.
